Measured values as given in publication PMC5447021, “TNF Lectin-Like Domain Restores Epithelial Sodium Channel Function in Frameshift Mutants Associated with Pseudohypoaldosteronism Type 1B” (Frontiers in Immunology, 2017).
“Also recorded” adds a separate entry of the source. Marks after values point to notes of the source that are not given here.

How the values were obtained:
αR448fs = assay: Membrane abundance of αR448fs; type: cell-based, human; conditions: n = 4
Procedure: Cell surface biotinylation was performed as previously described ([26]). In brief, A549 cells or transiently transfected HEK-293 cells were grown in 10 cm dishes in 37°C, 5% CO2 incubator in DMEM medium supplemented with 5% FBS. […] Medium was aspirated, and then cells were washed twice with 10 ml ice-cold phosphate-buffered saline (PBS), covered with 2.5 mg EZ-Link Sulfo-NHS-SS-Biotin (Thermo Scientific, Rockford, USA), dissolved in 10 ml ice-cold PBS, and incubated at 4°C with gentle agitation for 30 min. Fifty milliliters of quenching solution were added to cells; then cells were scraped in solution and transferred to fresh 50 ml tube. Cell suspension was centrifuged at 500 × g for 3 min. Supernatant was discarded, and 5 ml of Tris-buffered saline (TBS) was added to the cell pellet. The cell pellet was resuspended and centrifuged at 500 × g for 3 min. Supernatant was discarded and cell pellet was resuspended in lysis buffer containing protease inhibitor cocktail (10 µM pepstatin A, 10 µM phenylmethylsulfonyl fluoride, and 10 µM leupeptin) and transferred to fresh 1.5 ml centrifuge tube. Cell pellet was then homogenized on ice by ultrasonication using 1 s bursts and incubated on ice for at least 30 min. Intact cells and nuclei were pelleted by centrifugation at 10,000 × g for 2 min under cooling conditions. Pellet was then discarded and supernatant was transferred to fresh tube, incubated overnight with 0.5 ml NeutrAvidin Agarose under gentle rotation at 4°C and centrifuged at 500 × g for 5 min under cooling conditions. Supernatant was then discarded and the pellet washed twice with 200 µl lysis buffer. The biotinylated proteins were eluted with 100 µl sodium dodecyl sulfate (SDS) sample buffer (62.5 mM Tris, pH 6.8, 1% SDS, 10% glycerine, 50 mM dithiothreitol) containing 10 µM E64 at 65°C for 10 min. Sample was then centrifuged at 500 × g for 2 min. Pellet was discarded and supernatant subjected to protein electrophoresis and immunoblotting. The biotinylated proteins were separated under reducing conditions by SDS-PAGE using 7.5% SDS gel along with prestained protein marker (cat. #12949 from Cell Signaling). Proteins were then transferred onto a nitrocellulose membrane (UltraCruzTM […], Santa Cruz Biotechnology, TX, USA) by semi-dry blotting at 25 V for 30 min. Unspecific binding sites were blocked by incubating the membrane overnight at 4°C with 3% FBS in PBS supplemented with 0.02% sodium azide. Membrane was then incubated for 90 min with primary antibody (anti-α-hENaC, anti-δ-hENaC, and anti-β-actin from Sigma Aldrich; anti-β- and anti-γ-hENaC from Santa Cruz Biotechnology). […] Exposed films were scanned and quantified using ImageJ (NIH, MD, USA). […]

[1] = test system: WT or mutant frameshift α-ENaC; assay: Membrane abundance of α-ENaC, WT or mutant frameshift (overall); type: cell-based, human; conditions: HEK-293, WT or mutant frameshift α-ENaC
Procedure: Cell surface biotinylation was performed as previously described ([26]). In brief, A549 cells or transiently transfected HEK-293 cells were grown in 10 cm dishes in 37°C, 5% CO2 incubator in DMEM medium supplemented with 5% FBS. […] Medium was aspirated, and then cells were washed twice with 10 ml ice-cold phosphate-buffered saline (PBS), covered with 2.5 mg EZ-Link Sulfo-NHS-SS-Biotin (Thermo Scientific, Rockford, USA), dissolved in 10 ml ice-cold PBS, and incubated at 4°C with gentle agitation for 30 min. Fifty milliliters of quenching solution were added to cells; then cells were scraped in solution and transferred to fresh 50 ml tube. Cell suspension was centrifuged at 500 × g for 3 min. Supernatant was discarded, and 5 ml of Tris-buffered saline (TBS) was added to the cell pellet. The cell pellet was resuspended and centrifuged at 500 × g for 3 min. Supernatant was discarded and cell pellet was resuspended in lysis buffer containing protease inhibitor cocktail (10 µM pepstatin A, 10 µM phenylmethylsulfonyl fluoride, and 10 µM leupeptin) and transferred to fresh 1.5 ml centrifuge tube. Cell pellet was then homogenized on ice by ultrasonication using 1 s bursts and incubated on ice for at least 30 min. Intact cells and nuclei were pelleted by centrifugation at 10,000 × g for 2 min under cooling conditions. […] Exposed films were scanned and quantified using ImageJ (NIH, MD, USA). […]

δD522Xβγ-ENaC = conditions: cited from earlier work
α-ENaC (WT αβγ-ENaC) = conditions: HEK-293, 5 and 10 min; returns after 1 h; cited from earlier work
[2] = test system: A549 and H441 cells or HEK-293 cells heterologously expressing human ENaC; set-up: method as in PMID 24077967, PMID 25029038; conditions: cited from earlier work

C[C@@H]1NC(=O)CNC(=O)[C@H](CCC(=O)O)NC(=O)[C@@H]2CCCN2C(=O)[C@H]([C@@H](C)O)NC(=O)[C@H](CCC(=O)O)NC(=O)[C@H](CCCNC(=N)N)NC(=O)[C@H](CCC(N)=O)NC(=O)CNC(=O)[C@@H](N)CSSC[C@@H](C(=O)O)NC(=O)[C@H](Cc2ccc(O)cc2)NC(=O)[C@H](Cc2c[nH]c3ccccc23)NC(=O)[C@@H]2CCCN2C(=O)[C@H](CCCCN)NC(=O)[C@H](C)NC(=O)[C@H](CCC(=O)O)NC1=O [solnatide, L-cysteine, L-cysteinylglycyl-L-glutaminyl-L-arginyl-L-α-glutamyl-L-threonyl-L-prolyl-L-α-glutamylglycyl-L-alanyl-L-α-glutamyl-L-alanyl-L-lysyl-L-prolyl-L-tryptophyl-L-tyrosyl-, cyclic (1→17)-disulfide]
Membrane abundance (αR448fs; glycosylated αR448fs, 200 nM solnatide, 5 min): highly increased after 5 min of solnatide treatment
Increase in membrane abundance after PNGase F (αR448fs; αR448fs, 200 nM solnatide, 100 units PNGase F): completely abolished in deglycosylated mutants; also recorded: after PNGase F treatment no differences can be observed
Membrane abundance, solnatide 5 min (αR448fs; αR448fs, 200 nM, 5 min, relative to WT control (=1), own control 1.32 ± 0.10, p < 0.001 vs control): 5.88 ± 0.32***
Membrane abundance, solnatide 10 min (αR448fs; αR448fs, 200 nM, 10 min, relative to WT control (=1), own control 1.32 ± 0.10): 1.30 ± 0.12
Membrane abundance of α-ENaC [1]: transient and significant increase in membrane abundance of α-ENaC
Effect of solnatide on amiloride-sensitive current (δD522Xβγ-ENaC): a residual albeit non-significant increase in the amiloride-sensitive current
Current increase, glycosylation sites removed (δD522Xβγ-ENaC; glycosylation sites in extracellular loop removed by mutation): small increase was not seen
Membrane abundance, solnatide (α-ENaC (WT αβγ-ENaC)): significant statistically
Na^+ current-enhancing effect after PNGase F [2]: Elimination of the Na^+ current-enhancing effect
